From ChEMBL document CHEMBL2010724, “Oroxylin A analogs exhibited strong inhibitory activities against iNOS-mediated nitric oxide (NO) production” (Bioorg Med Chem Lett, 2012)

What was measured:
[1] = molecular target: T1, Nitric oxide synthase, inducible (Mus musculus) (UniProt P29477); test: Inhibition of iNOS-induced NO production in LPS-stimulated mouse BV2 cells at 10 uM after 24 hrs; assay type: cell-based; settings: BV-2
T1 sequence (whole entry): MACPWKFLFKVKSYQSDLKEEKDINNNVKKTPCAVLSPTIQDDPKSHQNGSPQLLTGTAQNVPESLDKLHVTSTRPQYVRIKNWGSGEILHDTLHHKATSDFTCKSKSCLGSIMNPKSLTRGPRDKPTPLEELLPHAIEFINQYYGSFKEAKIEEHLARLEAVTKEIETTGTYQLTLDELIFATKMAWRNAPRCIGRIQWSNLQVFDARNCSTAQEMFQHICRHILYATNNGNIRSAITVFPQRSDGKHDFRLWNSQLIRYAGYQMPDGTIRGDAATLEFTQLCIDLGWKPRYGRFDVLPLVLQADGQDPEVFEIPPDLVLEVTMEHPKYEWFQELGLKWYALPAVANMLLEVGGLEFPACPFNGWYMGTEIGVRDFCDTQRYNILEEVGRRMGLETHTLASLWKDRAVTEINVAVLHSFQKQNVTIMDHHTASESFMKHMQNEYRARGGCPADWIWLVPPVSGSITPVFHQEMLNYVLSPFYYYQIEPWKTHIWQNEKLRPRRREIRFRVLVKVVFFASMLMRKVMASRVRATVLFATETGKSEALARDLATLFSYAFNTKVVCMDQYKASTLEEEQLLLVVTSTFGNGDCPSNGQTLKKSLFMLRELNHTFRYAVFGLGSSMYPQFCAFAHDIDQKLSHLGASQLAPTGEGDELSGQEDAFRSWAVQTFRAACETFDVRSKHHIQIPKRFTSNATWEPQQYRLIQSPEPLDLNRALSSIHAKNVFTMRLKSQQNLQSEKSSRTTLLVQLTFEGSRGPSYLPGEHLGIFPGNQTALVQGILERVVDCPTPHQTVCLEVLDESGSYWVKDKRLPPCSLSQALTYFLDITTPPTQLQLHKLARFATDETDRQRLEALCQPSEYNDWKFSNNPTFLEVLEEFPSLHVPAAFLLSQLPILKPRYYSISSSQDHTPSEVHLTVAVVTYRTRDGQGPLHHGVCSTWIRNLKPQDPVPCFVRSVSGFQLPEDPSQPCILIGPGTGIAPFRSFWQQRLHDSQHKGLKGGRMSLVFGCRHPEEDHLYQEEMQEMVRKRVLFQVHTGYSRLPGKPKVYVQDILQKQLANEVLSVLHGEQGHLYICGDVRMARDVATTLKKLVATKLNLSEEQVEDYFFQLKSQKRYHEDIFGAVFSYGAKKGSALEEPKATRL

[2] = molecular target: T2, Nitric oxide synthase, inducible (Mus musculus, UniProt P29477); test: Inhibition of iNOS-induced NO production in LPS-stimulated mouse BV2 cells after 24 hrs; assay type: cell-based; settings: bv-2
T2 sequence (P29477 whole entry): T1 sequence (whole entry)

inhibition [1] [%]	IC50 [2] [µM]	SMILES
45.7	4.73	COc1c(O)cc2oc(-c3ccc([N+](=O)[O-])cc3)cc(=O)c2c1O
13.1	–	COc1c(O)cc2oc(-c3ccc(Cl)c(Cl)c3)cc(=O)c2c1O
40	7.8	COc1c(O)cc(O)c2c(=O)cc(-c3ccccc3)oc12 [WOGONIN]
45.2	10.8	COc1c(O)cc2oc(-c3cccc(Br)c3)cc(=O)c2c1O
14.2	–	COc1c(O)cc2oc(-c3ccccc3F)cc(=O)c2c1O

The remaining lines, values behind:

SMILES	inhibition [1] [%]	IC50 [2] [µM]
COc1c(O)cc2oc(-c3ccccc3)cc(=O)c2c1O	26	–
COc1c(O)cc2oc(-c3ccc(F)cc3)cc(=O)c2c1O	40.8	8.58
COc1c(O)cc2oc(-c3cccc(F)c3)cc(=O)c2c1O	39.9	11.4
COc1c(O)cc2oc(-c3ccc(F)cc3F)cc(=O)c2c1O	10.6	–
COc1cc(-c2cc(=O)c3c(O)c(OC)c(O)cc3o2)ccc1O	8.2	–
